Measured values taken from the supplement of paper PMC10307832.

Experiments:
Experiment in all cases: relative viability (nuclei count vs DMSO), 5 days (fraction); higher = more cells survive
[1] = compound: Cc1ccc(C(=O)Nc2ccc(CN3CCN(C)CC3)c(C(F)(F)F)c2)cc1C#Cc1cnc2cccnn12 [Ponatinib] + CC(=O)c1c(C)c2cnc(Nc3ccc(N4CCNCC4)cn3)nc2n(C2CCCC2)c1=O [Palbociclib] (partner 0.5 µM)
Procedure, shortened: (§1)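 Each reported value is a median over duplicate plates. It expresses relative viability: treated-well nuclei count divided by vehicle-well nuclei count. Lung cancer cell lines in 1536-well plates were dosed by pin tool a day after seeding, alone with one drug or with a fixed anchor-drug dose plus five library-drug doses (not always all listed) in √10 steps, and nuclei were counted after 5 days.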

[2] = compound: Cc1ccc(Nc2nccc(N(C)c3ccc4c(C)n(C)nc4c3)n2)cc1S(N)(=O)=O [Pazopanib] + Nc1ncn([C@H]2C[C@H](O)[C@@H](CO)O2)c(=O)n1 [Decitabine] (partner 2 µM)
Procedure, shortened: as §1

[3] = compound: Cc1ccc(C(=O)Nc2ccc(CN3CCN(C)CC3)c(C(F)(F)F)c2)cc1C#Cc1cnc2cccnn12 [Ponatinib] + NC(=O)Nc1cc(-c2cccc(F)c2)sc1C(=O)N[C@H]1CCCNC1 [AZD7762] (partner 0.2 µM)
Procedure, shortened: as §1

[4] = compound: Cc1ccc(Nc2nccc(N(C)c3ccc4c(C)n(C)nc4c3)n2)cc1S(N)(=O)=O [Pazopanib] + C[C@@H](Oc1cc(-c2cnn(C3CCNCC3)c2)cnc1N)c1c(Cl)ccc(F)c1Cl [Crizotinib] (partner 1 µM)
Procedure, shortened: as §1

Cell Line | relative viability ([1]; first compound 0.002 µM) | relative viability ([1]; first compound 0.006325 µM) | relative viability ([1]; first compound 0.06325 µM) | relative viability ([1]; first compound 0.2 µM) | relative viability ([2]; first compound 0.03162 µM) | relative viability ([2]; first compound 0.1 µM) | relative viability ([2]; first compound 0.3162 µM) | relative viability ([2]; first compound 1 µM) | relative viability ([3]; first compound 0.002 µM) | relative viability ([3]; first compound 0.006325 µM) | relative viability ([3]; first compound 0.06325 µM) | relative viability ([3]; first compound 0.2 µM) | relative viability ([4]; first compound 0.01 µM) | relative viability ([4]; first compound 0.03162 µM) | relative viability ([4]; first compound 0.1 µM) | relative viability ([4]; first compound 0.3162 µM) | relative viability ([4]; first compound 1 µM) | relative viability ([2]; first compound 0.01 µM)
LU99A | 0.37 | 0.433 | 0.407 | 0.363 | 0.916 | 0.935 | 0.953 | 0.961 | 0.308 | 0.421 | 0.399 | 0.48 | 0.499 | 0.533 | 0.53 | 0.606 | 0.568 | 
ABC-1 | 0.571 | 0.693 | 0.877 | 0.646 | 1.12 | 1 | 1.31 | 0.807 | 0.828 | 0.878 | 0.755 | 0.663 | 1.27 | 1.04 | 0.873 | 0.986 | 1.11 | 1.01
NCI-H358 | 0.137 | 0.129 | 0.148 | 0.136 | 0.22 | 0.219 | 0.25 | 0.276 | 0.45 | 0.567 | 0.509 | 0.46 | 0.722 | 0.688 | 0.518 | 0.622 | 0.478 | 0.217
NCI-H1299 |  |  |  |  |  |  |  |  |  |  |  |  | 0.983 | 0.913 | 0.921 | 0.969 | 0.892 | 
EBC-1 |  |  |  |  |  |  |  |  |  |  |  |  | 0.224 | 0.202 | 0.197 | 0.184 | 0.187 | 
NCI-H2405 | 0.487 | 0.476 | 0.501 | 0.473 | 0.774 | 0.8 | 0.858 | 0.814 | 0.622 | 0.73 | 0.705 | 0.542 | 0.825 | 0.863 | 0.842 | 0.915 | 0.713 | 0.724
NCI-H1993 | 0.557 | 0.613 | 0.779 | 0.771 | 0.493 | 0.607 | 0.678 | 0.59 | 0.65 | 0.86 | 0.773 | 0.689 | 0.871 | 0.902 | 0.971 | 0.926 | 0.877 | 
NCI-H441 | 0.238 | 0.229 | 0.252 | 0.209 | 0.272 | 0.229 | 0.257 | 0.252 | 1.18 | 1.19 | 1.35 | 1.14 | 0.686 | 0.704 | 0.639 | 0.625 | 0.596 | 0.239
NCI-H1648 | 0.266 | 0.245 | 0.246 | 0.252 |  | 0.528 | 0.568 | 0.46 | 0.627 | 0.64 | 0.618 | 0.567 |  |  |  |  |  | 
NCI-H661 | 0.412 | 0.412 | 0.434 | 0.416 | 0.576 | 0.578 | 0.598 | 0.596 |  |  |  |  | 1.13 | 0.976 | 1.03 | 0.998 | 0.987 | 0.498
COR-L23 | 0.271 | 0.287 | 0.272 | 0.229 | 0.43 | 0.442 | 0.459 | 0.49 |  |  |  |  | 0.635 | 0.645 | 0.663 | 0.704 | 0.64 | 0.457
COR-L 105 | 0.351 | 0.4 | 0.404 | 0.447 | 0.576 | 0.737 | 0.677 | 0.719 |  |  |  |  | 0.712 | 0.984 | 0.838 | 0.883 | 0.964 | 0.746
NCI-H2023 | 0.447 | 0.456 | 0.402 | 0.438 | 0.236 | 0.228 | 0.206 | 0.265 |  |  |  |  | 0.695 | 0.762 | 0.666 | 0.613 | 0.728 | 0.206
NCI-H596 |  |  |  |  | 1.08 | 1.14 | 1.12 | 0.966 | 1.08 | 1.04 | 0.912 | 0.632 | 0.905 | 1.15 | 1.01 | 0.986 | 0.926 | 0.996
A549 |  |  |  |  | 0.276 | 0.281 | 0.273 | 0.332 |  |  |  |  | 0.813 | 0.855 | 0.709 | 0.692 | 0.732 | 
NCI-H520 | 0.215 | 0.207 | 0.172 | 0.16 | 0.471 | 0.569 | 0.509 | 0.572 |  |  |  |  |  | 0.894 | 0.991 | 0.672 | 0.747 | 0.48
SK-MES-1 | 0.36 | 0.379 | 0.405 | 0.327 | 0.359 | 0.369 | 0.416 | 0.55 |  |  |  |  | 0.93 | 1 | 1.01 | 1.01 | 0.98 | 0.338
NCI-H1563 |  |  |  |  |  |  |  |  |  |  |  |  | 0.963 | 0.88 | 0.894 | 0.878 | 0.888 | 
NCI-H1793 | 0.328 | 0.327 | 0.394 | 0.413 | 0.516 | 0.488 | 0.506 | 0.627 | 0.406 | 0.466 | 0.282 | 0.178 |  |  |  |  |  | 
NCI-H2009 | 0.161 | 0.225 | 0.238 | 0.202 | 0.387 | 0.396 | 0.343 | 0.382 |  |  |  |  | 1.05 | 1.06 | 1.01 | 1.05 | 0.964 | 0.334
NCI-H522 | 1.05 | 0.982 | 1.18 | 0.814 | 0.666 | 0.817 | 0.73 | 0.673 | 0.664 | 0.784 | 0.695 | 0.819 |  |  |  |  |  | 0.658
IA-LM |  |  |  |  |  |  |  |  |  |  |  |  | 0.93 |  | 0.938 | 0.843 | 0.659 | 
SW 1573 | 0.411 | 0.402 | 0.341 | 0.401 | 0.52 | 0.607 | 0.528 | 0.7 |  |  |  |  | 0.813 | 0.878 | 0.974 | 0.836 | 0.757 | 0.465
NCI-H1703 |  |  |  |  |  |  |  |  | 0.118 | 0.143 | 0.118 | 0.143 | 0.587 | 0.628 | 0.261 | 0.215 | 0.221 | 
SW 900 | 0.484 | 0.485 | 0.569 | 0.516 | 0.453 |  | 0.462 | 0.505 | 0.569 | 0.46 | 0.606 | 0.537 |  |  |  |  |  | 0.516
